Assay results from publication PMC3145970, “Specific CLK Inhibitors from a Novel Chemotype for Regulation of Alternative Splicing” (Chemistry & Biology, 2011).
Where two headings read alike, the source gives them in different places.

Experiments:
Experiment in all cases: Thermal stability shift assay
Format in all cases: binding
ALK2 = target: T1, ALK2 (Homo sapiens, UniProt Q04771); details: read-out: Tm shift ALK2
T1 sequence (Q04771 21-509): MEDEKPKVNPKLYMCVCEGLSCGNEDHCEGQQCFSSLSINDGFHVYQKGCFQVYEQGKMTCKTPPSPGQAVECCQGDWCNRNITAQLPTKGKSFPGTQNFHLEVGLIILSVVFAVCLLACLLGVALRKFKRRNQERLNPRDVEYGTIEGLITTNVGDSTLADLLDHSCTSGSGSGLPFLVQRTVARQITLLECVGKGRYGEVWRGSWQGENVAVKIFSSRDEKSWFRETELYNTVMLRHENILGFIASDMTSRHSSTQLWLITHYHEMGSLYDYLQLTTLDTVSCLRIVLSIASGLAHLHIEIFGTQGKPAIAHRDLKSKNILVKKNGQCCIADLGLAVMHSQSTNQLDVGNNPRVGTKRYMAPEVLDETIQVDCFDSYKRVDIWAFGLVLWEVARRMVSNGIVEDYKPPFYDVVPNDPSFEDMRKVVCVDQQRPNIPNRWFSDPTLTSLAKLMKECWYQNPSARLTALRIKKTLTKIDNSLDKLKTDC
Method: (§1) Thermal denaturation experiments were carried out in an Mx3005p real-time PCR machine (Agilent) using a protein concentration of 2 μM and an inhibitor concentration of 10 μM. Samples were buffered in 10 mM HEPES (pH 7.5), 500 mM NaCl and a 1:1000 dilution of SyproOrange (Invitrogen). The assay and data evaluation were carried out as described ([Bullock et al., 2005])

DMPK1 = target: T2, DMPK1 (Homo sapiens, UniProt Q09013); details: read-out: Tm shift DMPK1
T2 construct: purchased in-house (SGC Oxford thermal shift panel)
T2 sequence (Q09013 1-629): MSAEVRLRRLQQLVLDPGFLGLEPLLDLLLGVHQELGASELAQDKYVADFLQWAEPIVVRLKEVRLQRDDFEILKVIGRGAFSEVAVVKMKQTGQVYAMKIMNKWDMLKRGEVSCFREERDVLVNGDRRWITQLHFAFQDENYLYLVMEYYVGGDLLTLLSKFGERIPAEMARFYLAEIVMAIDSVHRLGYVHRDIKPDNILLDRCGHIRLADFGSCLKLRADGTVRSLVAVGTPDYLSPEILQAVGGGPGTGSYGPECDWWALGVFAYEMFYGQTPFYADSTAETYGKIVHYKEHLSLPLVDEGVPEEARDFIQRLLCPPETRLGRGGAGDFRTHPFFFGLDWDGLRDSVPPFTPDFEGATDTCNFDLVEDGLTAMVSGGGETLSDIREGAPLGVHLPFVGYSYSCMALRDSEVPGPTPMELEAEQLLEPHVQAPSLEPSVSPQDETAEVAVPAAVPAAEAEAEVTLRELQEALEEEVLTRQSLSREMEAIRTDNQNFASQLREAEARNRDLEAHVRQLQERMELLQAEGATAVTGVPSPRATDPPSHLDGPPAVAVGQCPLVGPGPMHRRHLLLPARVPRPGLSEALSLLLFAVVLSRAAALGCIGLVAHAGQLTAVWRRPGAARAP
Method: as §1

VRK2 = VRK2 (Homo sapiens, UniProt Q86Y07); details: read-out: Tm shift VRK2
Method: as §1

FGR = target: T3, FGR (Homo sapiens, UniProt P09769); details: read-out: Tm shift FGR
T3 construct: purchased in-house (SGC Oxford thermal shift panel)
Method: as §1

CaMK1d = CaMK1d (Homo sapiens, UniProt Q8IU85); details: read-out: Tm shift CaMK1d
Method: as §1

SgK085 = target: T4, SgK085 (Homo sapiens, UniProt Q86YV6); details: read-out: Tm shift SgK085
T4 sequence (Q86YV6 1-388): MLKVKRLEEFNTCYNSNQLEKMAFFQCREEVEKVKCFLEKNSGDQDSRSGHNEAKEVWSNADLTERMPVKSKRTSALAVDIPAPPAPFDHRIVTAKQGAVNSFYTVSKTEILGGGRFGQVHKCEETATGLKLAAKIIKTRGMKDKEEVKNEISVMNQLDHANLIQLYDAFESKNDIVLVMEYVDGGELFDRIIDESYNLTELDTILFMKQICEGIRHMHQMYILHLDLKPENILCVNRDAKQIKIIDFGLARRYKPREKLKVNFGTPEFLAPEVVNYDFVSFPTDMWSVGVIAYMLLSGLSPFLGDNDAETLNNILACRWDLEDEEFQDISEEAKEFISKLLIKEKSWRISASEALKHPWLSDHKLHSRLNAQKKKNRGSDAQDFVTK
Method: as §1

DAPK3 = target: T5, DAPK3 (Homo sapiens, UniProt O43293); details: read-out: Tm shift DAPK3
T5 construct: purchased in-house (SGC Oxford thermal shift panel)
Method: as §1

AKT3 = AKT3 (Homo sapiens, UniProt Q9Y243); details: read-out: Tm shift AKT3
Method: as §1

TTK = target: T6, TTK (Homo sapiens, UniProt P33981); details: read-out: Tm shift TTK
T6 sequence (P33981 1-857): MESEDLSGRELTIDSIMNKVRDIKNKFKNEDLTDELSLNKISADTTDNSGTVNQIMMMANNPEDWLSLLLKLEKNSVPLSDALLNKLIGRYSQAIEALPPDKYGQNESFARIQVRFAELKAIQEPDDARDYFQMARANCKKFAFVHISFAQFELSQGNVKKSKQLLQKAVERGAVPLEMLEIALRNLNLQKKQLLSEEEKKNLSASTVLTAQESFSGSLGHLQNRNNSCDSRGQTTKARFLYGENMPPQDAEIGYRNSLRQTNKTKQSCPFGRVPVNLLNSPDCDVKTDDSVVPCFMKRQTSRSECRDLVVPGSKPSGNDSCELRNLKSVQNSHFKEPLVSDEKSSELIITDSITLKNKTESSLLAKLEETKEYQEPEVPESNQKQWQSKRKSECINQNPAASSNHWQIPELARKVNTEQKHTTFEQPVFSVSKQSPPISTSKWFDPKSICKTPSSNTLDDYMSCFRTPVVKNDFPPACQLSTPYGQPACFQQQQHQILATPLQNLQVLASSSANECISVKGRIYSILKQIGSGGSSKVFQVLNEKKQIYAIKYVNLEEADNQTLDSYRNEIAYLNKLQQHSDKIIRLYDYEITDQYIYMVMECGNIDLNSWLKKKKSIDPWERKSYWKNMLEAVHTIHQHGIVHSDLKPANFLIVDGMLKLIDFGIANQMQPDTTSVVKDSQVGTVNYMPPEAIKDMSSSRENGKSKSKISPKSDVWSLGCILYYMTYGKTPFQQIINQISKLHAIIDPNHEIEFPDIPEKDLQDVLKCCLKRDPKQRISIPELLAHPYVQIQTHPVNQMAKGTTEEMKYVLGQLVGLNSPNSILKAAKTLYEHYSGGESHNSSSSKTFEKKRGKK
Method: as §1

T3 sequence (P09769 whole entry): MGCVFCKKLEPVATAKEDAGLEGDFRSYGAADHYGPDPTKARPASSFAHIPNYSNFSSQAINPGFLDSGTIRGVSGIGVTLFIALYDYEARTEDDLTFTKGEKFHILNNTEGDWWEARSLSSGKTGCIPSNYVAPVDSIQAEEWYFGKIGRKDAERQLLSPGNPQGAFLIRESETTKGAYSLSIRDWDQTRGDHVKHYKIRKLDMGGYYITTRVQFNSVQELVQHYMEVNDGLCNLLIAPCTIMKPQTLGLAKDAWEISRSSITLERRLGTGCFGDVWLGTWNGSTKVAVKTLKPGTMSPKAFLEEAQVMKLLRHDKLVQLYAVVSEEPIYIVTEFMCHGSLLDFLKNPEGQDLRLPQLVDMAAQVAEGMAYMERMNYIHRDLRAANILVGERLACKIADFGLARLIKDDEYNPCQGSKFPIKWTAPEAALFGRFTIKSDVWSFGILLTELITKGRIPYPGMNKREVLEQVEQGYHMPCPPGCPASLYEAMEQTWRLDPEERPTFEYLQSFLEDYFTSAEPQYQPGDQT
AKT3, sequence (Q9Y243 whole entry): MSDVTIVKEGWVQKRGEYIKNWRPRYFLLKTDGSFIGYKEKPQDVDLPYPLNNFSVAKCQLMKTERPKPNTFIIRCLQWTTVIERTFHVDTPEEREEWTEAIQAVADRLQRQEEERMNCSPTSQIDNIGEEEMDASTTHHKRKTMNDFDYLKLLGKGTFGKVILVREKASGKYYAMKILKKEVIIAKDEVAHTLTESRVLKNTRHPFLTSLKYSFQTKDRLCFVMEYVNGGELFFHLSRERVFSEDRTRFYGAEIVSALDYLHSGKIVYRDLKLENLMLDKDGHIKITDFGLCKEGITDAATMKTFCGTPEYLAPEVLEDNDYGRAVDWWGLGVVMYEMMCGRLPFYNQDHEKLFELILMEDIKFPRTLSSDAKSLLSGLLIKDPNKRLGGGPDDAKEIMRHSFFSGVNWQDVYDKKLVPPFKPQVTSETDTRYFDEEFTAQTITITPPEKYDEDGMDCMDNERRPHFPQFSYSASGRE
VRK2, sequence (Q86Y07 whole entry): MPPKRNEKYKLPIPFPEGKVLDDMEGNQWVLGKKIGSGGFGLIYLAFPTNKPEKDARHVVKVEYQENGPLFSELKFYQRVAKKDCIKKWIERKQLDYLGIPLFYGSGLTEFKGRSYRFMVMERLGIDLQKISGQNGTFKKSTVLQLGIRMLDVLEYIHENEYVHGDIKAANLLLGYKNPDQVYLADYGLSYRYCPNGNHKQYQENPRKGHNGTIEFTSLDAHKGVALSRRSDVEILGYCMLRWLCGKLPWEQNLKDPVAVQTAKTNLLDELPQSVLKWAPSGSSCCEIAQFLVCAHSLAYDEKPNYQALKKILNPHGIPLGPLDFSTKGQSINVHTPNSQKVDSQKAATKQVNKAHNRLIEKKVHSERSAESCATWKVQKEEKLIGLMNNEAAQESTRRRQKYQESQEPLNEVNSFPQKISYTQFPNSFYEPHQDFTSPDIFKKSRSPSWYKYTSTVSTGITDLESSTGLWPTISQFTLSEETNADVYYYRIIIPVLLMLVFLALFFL
CaMK1d, sequence (Q8IU85 whole entry): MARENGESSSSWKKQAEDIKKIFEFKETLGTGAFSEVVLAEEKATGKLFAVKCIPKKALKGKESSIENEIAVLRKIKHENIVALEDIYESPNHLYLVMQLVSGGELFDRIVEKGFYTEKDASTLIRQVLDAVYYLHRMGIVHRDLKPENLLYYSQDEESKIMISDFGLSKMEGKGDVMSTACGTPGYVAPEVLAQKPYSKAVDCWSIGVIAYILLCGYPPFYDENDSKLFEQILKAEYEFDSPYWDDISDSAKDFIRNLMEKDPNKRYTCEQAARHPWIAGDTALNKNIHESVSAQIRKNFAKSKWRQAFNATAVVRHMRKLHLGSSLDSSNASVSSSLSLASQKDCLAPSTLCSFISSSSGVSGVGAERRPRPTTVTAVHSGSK
T5 sequence (O43293 whole entry): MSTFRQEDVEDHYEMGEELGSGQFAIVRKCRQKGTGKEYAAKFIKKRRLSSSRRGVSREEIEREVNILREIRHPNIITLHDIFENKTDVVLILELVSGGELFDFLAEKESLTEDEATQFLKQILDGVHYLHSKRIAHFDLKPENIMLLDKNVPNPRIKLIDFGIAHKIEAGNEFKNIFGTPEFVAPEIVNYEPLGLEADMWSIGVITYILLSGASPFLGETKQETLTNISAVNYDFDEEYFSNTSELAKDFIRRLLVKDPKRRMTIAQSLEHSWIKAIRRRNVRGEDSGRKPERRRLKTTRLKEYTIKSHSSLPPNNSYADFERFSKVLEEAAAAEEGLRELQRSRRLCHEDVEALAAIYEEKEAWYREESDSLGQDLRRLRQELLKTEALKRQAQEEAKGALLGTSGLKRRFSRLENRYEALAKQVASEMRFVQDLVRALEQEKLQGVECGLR

Row | ΔTm at 10 µM (ALK2; inhibitor 10 μM) [°C] | ΔTm at 10 µM (DMPK1; inhibitor 10 μM) [°C] | ΔTm at 10 µM (VRK2; inhibitor 10 μM) [°C] | ΔTm at 10 µM (FGR; inhibitor 10 μM) [°C] | ΔTm at 10 µM (CaMK1d; inhibitor 10 μM) [°C] | ΔTm at 10 µM (SgK085; inhibitor 10 μM) [°C] | ΔTm at 10 µM (DAPK3; inhibitor 10 μM) [°C] | ΔTm at 10 µM (AKT3; inhibitor 10 μM) [°C] | ΔTm at 10 µM (TTK; inhibitor 10 μM) [°C] | Structure (SMILES) | ΔTm at 10 µM (ALK2) [°C] | ΔTm at 10 µM (DMPK1) [°C] | ΔTm at 10 µM (VRK2) [°C] | ΔTm at 10 µM (FGR) [°C] | ΔTm at 10 µM (CaMK1d) [°C] | ΔTm at 10 µM (SgK085) [°C] | ΔTm at 10 µM (DAPK3) [°C] | ΔTm at 10 µM (AKT3) [°C] | ΔTm at 10 µM (TTK) [°C]
1 | – | – | – | – | – | – | – | – | – | CCOC(=O)c1c(C(C#N)=CN)c2ccc(Cl)c(Cl)c2n1C (mixture of isomers) [KH-CB20, (E/Z)-Ethyl 3-(2-Amino-1-Cyanovinyl)-6,7-Dichloro-1-Methyl-1H-Indole-2-Carboxylate] | 0.8 | -0.4 | 0.1 | 0.3 | -0.6 | 4.5 | 2.2 | -0.3 | 0.3
2 | -0.5 | -0.3 | 0.2 | -0.2 | -0.4 | 0.4 | 0.3 | -0.2 | -0.1 | CCOC(=O)c1c(C(C#N)=CN(C)C)c2ccc(Cl)c(Cl)c2n1C (mixture of isomers) [compound 2, (E/Z)-Ethyl 6,7-Dichloro-3-[1-Cyano-2-(Dimethylamino)Vinyl]-1-Methyl-1H-Indole-2-Carboxylate] | – | – | – | – | – | – | – | – | –
3 | – | – | – | – | – | – | – | – | – | CCOC(=O)c1c(/C(C#N)=C\N)c2ccc(Cl)c(Cl)c2n1C [KH-CB19, (E)-Ethyl 3-(2-Amino-1-Cyanovinyl)-6,7-Dichloro-1-Methyl-1H-Indole-2-Carboxylate] | 0.5 | -0.4 | -0.1 | -0.3 | 0.1 | 4.1 | 2.2 | -0.2 | 0.5
4 | 0.5 | 0.9 | 0.1 | 0.1 | -0.3 | 2.9 | 2 | 0.1 | 1.8 | Cn1c2c(Cl)c(Cl)ccc2c2c(C#N)c[nH]c(=O)c21 [compound 3, 7,8-Dichloro-9-Methyl-1-Oxo-2,9-Dihydro-1H-Pyrido[3,4-b]Indole-4-Carbonitrile] | – | – | – | – | – | – | – | – | –

Row | Structure (SMILES) | ΔTm at 10 µM (ALK2; inhibitor 10 μM) [°C] | ΔTm at 10 µM (DMPK1; inhibitor 10 μM) [°C] | ΔTm at 10 µM (VRK2; inhibitor 10 μM) [°C] | ΔTm at 10 µM (FGR; inhibitor 10 μM) [°C] | ΔTm at 10 µM (CaMK1d; inhibitor 10 μM) [°C] | ΔTm at 10 µM (SgK085; inhibitor 10 μM) [°C] | ΔTm at 10 µM (DAPK3; inhibitor 10 μM) [°C] | ΔTm at 10 µM (AKT3; inhibitor 10 μM) [°C] | ΔTm at 10 µM (TTK; inhibitor 10 μM) [°C] | ΔTm at 10 µM (ALK2) [°C] | ΔTm at 10 µM (DMPK1) [°C] | ΔTm at 10 µM (VRK2) [°C] | ΔTm at 10 µM (FGR) [°C] | ΔTm at 10 µM (CaMK1d) [°C] | ΔTm at 10 µM (SgK085) [°C] | ΔTm at 10 µM (DAPK3) [°C] | ΔTm at 10 µM (AKT3) [°C] | ΔTm at 10 µM (TTK) [°C]
5 | NC1=NC(=O)/C(=C2\CCNC(=O)c3[nH]c(Br)cc32)N1 [Hymenialdisine, hymenialdisine, reference compound] | 2.1 | 0.2 | 0.8 | 0.7 | 0 | 2.7 | 7.6 | 1.3 | 0.7 | – | – | – | – | – | – | – | – | –
